Read-outs that look alike come from different tables or passages of the source.
Legend:
[1] = parameters: method as in Shen et al., 2020; Jiang et al., 2021; details: rats; intravenous injection of 14C-ilaprazole; ref Shen et al., 2020; Jiang et al., 2021; cited from earlier work
[2] = Population pharmacokinetic (PopPK) model of ilaprazole, intravenous infusion, pooled data of 4 phase I and 1 phase IIa trials; type: in vivo, human; parameters: Disease status effect on Vp (Disease status = 1): scale not given here; key to ω^2 Vp, inter-individual variability / ω^2 CL, inter-individual variability: variance ω^2 of log-normal (exponential) inter-individual random effect η
Excerpt: Data used to construct the PopPK model in current study were collected from 5 clinical trials of ilaprazole injection, including 4 phase I (No. CTR20132848, No. CTR20140147, No. CTR20150686, No. CTR20150685) clinical trials in healthy subjects, and 1 phase IIa (No. CTR20132846) clinical trial in patients with duodenal ulcer ([Wang et al., 2016a]; [Wang et al., 2016b]; [Wang et al., 2019]). All above studies included in this analysis were reviewed and approved by the Institutional Ethics Committee, registered in the China Clinical Trials Registry Center (chinadrugtrials.org.cn), and conducted in strict adherence to Good Clinical Practice and the Declaration of Helsinki.
The single-dose phase I study (No. CTR20132848) was a randomized, open, four-cycle crossover trial in which 16 healthy subjects were randomized into four groups and were given either oral control drug or intravenous infusion of 5, 10 or 20 mg of ilaprazole during different cycles, after a 1-week washout period, and then separately after crossover. In the multiple-dose phase I study (No. CTR20140147), 10 healthy subjects received a 5-day continuous intravenous infusion of 10 mg ilaprazole once daily. The next studies (No. CTR20150686, No. CTR20150685) were conducted in healthy subjects with a single 30 mg intravenous infusion of ilaprazole, and a 20 mg loading dose combined with a 10 mg maintenance dose for a total of 3 days of intravenous infusion of ilaprazole. In the phase IIa study (No. CTR20132846), 20 patients with duodenal ulcer were randomized to receive a 20 mg loading dose plus a 10 mg maintenance dose of intravenous infusion of ilaprazole once daily or a positive control drug.
Blood samples were collected for clinical pharmacokinetic analysis of ilaprazole in all studies, and the specific sampling designs are summarized in Table 1. To determine the concentration of ilaprazole in human plasma, a validated UPLC-MS/MS method was utilized, with the samples being processed by protein precipitation ([Wang et al., 2012]). The analytes were chromatographed on Acquity UPLC BEH C18 column (waters, MA, United States), and the detection was performed on Xevo-TQS tandem mass spectrometer coupled with an electro-spray ionization (ESI) source (waters, MA, United States). It is notable that ilaprazole concentration remained linear in the range of 1–1,000 ng/mL, with the lower limit of quantification of 1 ng/mL. After excluding 5 concentrations below the limit of quantification (BLQ) and 7 concentrations not detected (ND), a total of 1,560 plasma concentration from 58 subjects who received intravenous infusion of ilaprazole were included in the final PopPK analysis.
Based on the pooled data from the clinical studies mentioned above, the PopPK model for ilaprazole was constructed using non-linear mixed-effects model of Phoenix NLME (version 8.3; Certara Inc, Princeton, NJ, United States). We developed the PopPK model using the first-order conditional estimation extended least squares (FOCE-ELS) method. The specific modeling steps are as follows.
For the basic structural model, one-compartment and two-compartment models were tested to fit the data set according to the plasma concentration-time profile of ilaprazole, plotted on a semi-logarithmic scale. Based on the fact that the distribution of the population pharmacokinetic (PK) parameters essentially conforms to a log-normal distribution, the inter-individual variability in pharmacokinetic parameters was estimated by an exponential model (Eq. 1). Pik=Ppoppk*exp ηik (1)
In Eq. 1, Pik represents the kth pharmacokinetic parameter for the ith individual, Ppopk represents the typical value of the parameter in population, and ηik depicts the deviation between the kth pharmacokinetic parameter of the ith individual and the typical value of the population (i.e., random effect), It is assumed that η follows a normal distribution centered at 0 with variance ω^2. […]

[3] = cited from earlier work
[4] = parameters: method as in Wang et al., 2019; details: ref Wang et al., 2019, cited from earlier work
[5] = cited from earlier work; remark: listed apart in the source
[6] = parameters: method as in Sachs et al., 2006; Shin et al., 2014; details: ref Sachs et al., 2006; Shin et al., 2014; cited from earlier work

For COc1ccnc(C[S+]([O-])c2nc3cc(-n4cccc4)ccc3[nH]2)c1C (centres unmarked) [ilaprazole, 2-[[(4-methoxy-3-methyl)-2-pyridinyl]methyl-sulfinyl]-5-(1H-pyrol-1-yl)-1H-benzimidazole], the “radioactive signal in tissues/organs” value [1] is given as “can still be observed in the stomach after 24 h”, the “CL, clearance of central compartment” value ([2]; bootstrap median (n = 1,000)) is given as 3.394 L/h and the “V, volume of central compartment” value ([2]; bootstrap median (n = 1,000)) is given as 6.819 L. For the same compound, the “Vp, volume of peripheral compartment” value ([2]; bootstrap median (n = 1,000)) was 5.480 L, the “WT effect on Vp” value ([2]; bootstrap median (n = 1,000)) was 1.573 and the “σmult, residual variability” value ([2]; bootstrap median (n = 1,000)) was 0.182. For the same compound, the “ω^2 CL, inter-individual variability” value ([2]; bootstrap median (n = 1,000)) was 0.057, the “ω^2 V, inter-individual variability” value ([2]; bootstrap median (n = 1,000)) was 0.013 and the “ω^2 Vp, inter-individual variability” value ([2]; bootstrap median (n = 1,000)) was 0.033. The “Disease status effect on Vp (Disease status = 1)” value ([2]; bootstrap median (n = 1,000), duodenal ulcer) was 0.356, the clearance ([2]; both sexes, human, plasma, intravenous, final model estimate, read-out: CL, clearance of central compartment, typical value (converted)) was 56.6 mL/min and the “ω^2 CL, inter-individual variability” value ([2]; final model estimate) was 0.059. The “ω^2 V, inter-individual variability” value ([2]; final model estimate) was 0.013, the “ω^2 Vp, inter-individual variability” value ([2]; final model estimate) was 0.032 and the “Disease status effect on Vp (Disease status = 1)” value ([2]; final model estimate, Disease status = 1 for duodenal ulcer) was 0.356. The “V, volume of central compartment, typical value” ([2]; final model estimate, IV infusion, Chinese healthy subjects and duodenal ulcer patients) was 6.795 L, the “Vp, volume of peripheral compartment, typical value” ([2]; final model estimate, median weight 60.6 kg) was 5.544 L and the “σmult, residual variability” value ([2]; final model estimate, multiplicative residual error) was 0.184. The “WT effect on Vp” value ([2]; final model estimate, power exponent on Weight/60.6) was 1.545, the “plasma protein binding capacity” value [3] was “more than 97%” and the “AUC0‐∞” value ([4]; duodenal ulcers patients) was 4900 ng·h/mL. The Cmax ([4]; duodenal ulcers patients) was 1,540 ng/mL, the “AUC0‐∞” value ([4]; healthy subjects) was 7400 ng·h/mL and the Cmax ([4]; healthy subjects) was 1871.3 ng/mL. The LogP [5] was 3.04 and the “half-life (t1/2)” value [6] was 4.7 to 5.3 h.

From PMC10805834, “Population pharmacokinetic modeling of ilaprazole in healthy subjects and patients with duodenal ulcer in China” (Frontiers in Pharmacology, 2024)
